Experimental data as given in patent US20230398130A1, “METHODS AND COMPOSITIONS FOR DIFFERENTIATING STEM CELLS” (Massachusetts Institute of Technology, priority 2020, published 2023).
Counter-ions that a name gives are not always drawn.

System: ISC-enriched organoids
Assay: Primary screen, 384-well 2.5-D organoid differentiation (ENR+CD, 6 days, Target Selective Inhibitor Library, vs whole-plate median): ATP (CellTiter-Glo 3D, CTG)

SMILES | Z.CTG (standard z score) (Dose 0.08 uM, primary screen) | Z.CTG (standard z score) (Dose 0.40 uM, primary screen) | Z.CTG (standard z score) (Dose 2.00 uM, primary screen) | Z.CTG (standard z score) (Dose 10.00 uM, primary screen) | Z.CTG (standard z score) (dose 0.08 uM) | Z.CTG (standard z score) (dose 0.40 uM) | Z.CTG (standard z score) (dose 2.00 uM) | Z.CTG (standard z score) (dose 10.00 uM)
Oc1c2ccccc2c2c3c(cccc13)N=N2 [SP600125] | 0.471 | 0.347 | 0.246 | −0.047 | – | – | – | –
Cc1[nH]c(/C=C2\C(=O)Nc3ccc(S(=O)(=O)N(C)c4cccc(Cl)c4)cc32)c(C)c1C(=O)N1CCN(C)CC1 [SU11274] | 0.852 | 0.645 | 0.139 | −1.954 | – | – | – | –
CN[C@H]1CC[C@@H](c2ccc(Cl)c(Cl)c2)c2ccccc21 [Sertraline HCl] | −0.189 | 0.208 | 0.157 | 0.104 | – | – | – | –
CC(NC(=O)c1ccccc1/N=C/c1c(O)ccc2ccccc12)c1ccccc1 (centres unmarked) [Sirtinol] | −0.520 | 0.022 | −0.287 | −0.186 | – | – | – | –
Cc1cc2c(cc1CC(=O)c1sccc1S(=O)(=O)Nc1onc(C)c1Cl)OCO2 [Sitaxentan sodium] | 0.226 | −0.478 | −0.230 | −0.240 | – | – | – | –
CN1CCN(c2nc(C3=C(c4c[nH]c5ccccc45)C(=O)NC3=O)c3ccccc3n2)CC1 [Sotrastaurin] | 0.024 | −0.286 | −0.650 | −0.578 | – | – | – | –
O=S(=O)(c1ccccc1)N(CC(F)(F)F)c1ccc(C(O)(C(F)(F)F)C(F)(F)F)cc1 [T0901317] | 0.112 | 0.426 | 0.228 | 0.272 | – | – | – | –
Cc1cc(OCCCS(C)(=O)=O)cc(C)c1-c1cccc(COc2ccc3c(c2)OC[C@H]3CC(=O)O)c1 [TAK-875] | 0.572 | −0.392 | −0.376 | −0.694 | – | – | – | –
CN1CC(=O)N2[C@H](c3ccc4c(c3)OCO4)c3[nH]c4ccccc4c3C[C@@H]2C1=O [Tadalafil] | −0.046 | 0.863 | 1.042 | 0.644 | – | – | – | –
COc1cc2c(cc1OC)CN(CCc1ccc(NC(=O)c3cc(OC)c(OC)cc3NC(=O)c3cnc4ccccc4c3)cc1)CC2 [Tariquidar] | −0.280 | 0.128 | 0.899 | 0.543 | – | – | – | –
CCCc1nc2c(C)cc(-c3nc4ccccc4n3C)cc2n1Cc1ccc(-c2ccccc2C(=O)O)cc1 [Telmisartan] | 0.320 | 0.584 | 0.153 | 0.549 | – | – | – | –
CC(C)OC(=O)OCOP(=O)(CO[C@H](C)Cn1cnc2c(N)ncnc21)OCOC(=O)OC(C)C [Tenofovir Disoproxil Fumarate] | – | – | – | – | 0.172 | −0.004 | −0.378 | −1.034
CCCSc1nc(N[C@@H]2C[C@H]2c2ccc(F)c(F)c2)c2nnn([C@@H]3C[C@H](OCCO)[C@@H](O)[C@H]3O)c2n1 [Ticagrelor] | – | – | – | – | −0.190 | −0.069 | −0.645 | −0.576
Clc1ccccc1CN1CCc2sccc2C1 [Ticlopidine HCl] | – | – | – | – | −0.281 | −0.097 | −0.559 | −0.013
O=c1oc2cc(O)ccc2s1 [Tioxolone] | – | – | – | – | 0.586 | 0.212 | 0.105 | 0.783
c1ccc(CC2=NCCN2)cc1 [Tolazoline HCl] | – | – | – | – | 0.585 | 0.530 | −0.122 | −0.496
Cc1c(Cl)cccc1Nc1ccccc1C(=O)O [Tolfenamic Acid] | – | – | – | – | 0.467 | −0.007 | −0.379 | −0.276
Cc1ccccc1C(=O)Nc1ccc(C(=O)N2CCCC(O)c3cc(Cl)ccc32)c(C)c1 (centres unmarked) [Tolvaptan] | – | – | – | – | 0.227 | −0.019 | −0.225 | −0.249
CCOC(=O)N1c2ccc(C(F)(F)F)cc2[C@@H](N(Cc2cc(C(F)(F)F)cc(C(F)(F)F)c2)C(=O)OC)C[C@H]1CC [Torcetrapib] | – | – | – | – | 0.677 | 0.147 | −0.289 | −0.360
CN(C)CCOc1ccc(/C(=C(/CCCl)c2ccccc2)c2ccccc2)cc1 [Toremifene Citrate] | – | – | – | – | 0.822 | 0.285 | −2.417 | −3.335
Cn1c(=O)cc(N2CCC[C@@H](N)C2)n(Cc2cc(F)ccc2C#N)c1=O [Trelagliptin] | – | – | – | – | 0.482 | −0.181 | 0.120 | 0.322
Nc1nc(N)c2nc(-c3ccccc3)c(N)nc2n1 [Triamterene] | – | – | – | – | −0.070 | −0.394 | −0.241 | −1.103
CCC(COC(=O)c1cc(OC)c(OC)c(OC)c1)(c1ccccc1)N(C)C (centres unmarked) [Trimebutine] | – | – | – | – | 0.017 | −0.483 | −2.409 | −2.545
CNCc1ccc(-c2cc(-c3nc(-c4ccc(S(=O)(=O)C(C)C)cc4)cnc3N)on2)cc1 [VE-822] | – | – | – | – | −0.351 | −0.685 | −1.713 | −4.212
O=c1ncn2nc(Sc3ccc(F)cc3F)ccc2c1-c1c(Cl)cccc1Cl [VX-745] | – | – | – | – | 0.445 | 0.349 | 0.044 | 0.053
CCO[C@@H]1OC(=O)C[C@@H]1NC(=O)[C@@H]1CCCN1C(=O)[C@@H](NC(=O)c1ccc(N)c(Cl)c1)C(C)(C)C [VX-765] | – | – | – | – | 0.368 | 0.555 | 0.393 | 0.608
C[C@@H](c1ncncc1F)[C@](O)(Cn1cncn1)c1ccc(F)cc1F [Voriconazole] | – | – | – | – | 0.617 | 0.730 | 0.680 | 0.783
C=CC(=O)Nc1cccc(Oc2nc(Nc3ccc(N4CCN(C)CC4)cc3OC)ncc2Cl)c1 [WZ4002] | – | – | – | – | 0.748 | 0.196 | 0.360 | −2.248
Oc1nc(-c2ccc(C(F)(F)F)cc2)nc2c1CSCC2 [XAV-939] | – | – | – | – | −0.792 | −0.065 | −0.847 | −2.147
